The results in this text go back to US7101537B2, “Tricyclic quinoxaline and quinoline derivatives as a UV filter” (Merck Patentgesellschaft, priority 2001, dated 2006).

The nature of one data set: maxima of UV-A and UV-B absorption of quinoxaline derivatives in 2-propanol. The data set is classed as physicochemical. Particulars: 1 mg of substance per 100 ml of solvent, absorbance at UV-A maximum. On the procedure: The measurement was carried out in 2-propanol at a concentration of 1 mg of substance per 100 ml of solvent.
As to `c1ccc2nc3[nH]cnc3nc2c1`, the “UV-A (400 320 nm) Max. abs.” value stood at 0.5227.

On to `Cc1nc2nc3ccccc3nc2[nH]1`, for which the “UV-A (400 320 nm) Max. abs.” value is 0.5824.

`FC(F)(F)c1nc2nc3ccccc3nc2[nH]1`: the “UV-A (400 320 nm) Max. abs.” value is listed as 0.4875.

For the compound `CC(C)(C)c1nc2nc3ccccc3nc2[nH]1`, the “UV-A (400 320 nm) Max. abs.” value was found to be 0.6290.

For the compound `FC(F)(F)c1cc(-c2nc3nc4ccccc4nc3[nH]2)cc(C(F)(F)F)c1`, the “UV-A (400 320 nm) Max. abs.” value amounted to 0.7037.

As to `CC(=O)c1ccc(-n2c(-c3ccccc3)cc3nc4ccccc4nc32)cc1`, the “UV-A (400 320 nm) Max. abs.” value amounted to 0.4067.

Regarding `c1ccc(-c2cc3nc4ccccc4nc3[nH]2)cc1`, the “UV-A (400 320 nm) Max. abs.” value was determined as 0.7158.

As to `c1ccc2nc3[nH]ccc3nc2c1`, the “UV-A (400 320 nm) Max. abs.” value came to 0.5381.

`CC(=O)c1ccc(-n2c([SiH2]C(C)C)cc3nc4ccccc4nc32)cc1`: the “UV-A (400 320 nm) Max. abs.” value was determined as 0.5774.

In the case of `O=C(O)c1ccc(-n2c(-c3ccccc3)cc3nc4ccccc4nc32)cc1`, the “UV-A (400 320 nm) Max. abs.” value came to 0.3685.

The data set is the same for the next values; noted with them: 1 mg of substance per 100 ml of solvent, absorbance at UV-B maximum.
On to `c1ccc(-c2cc3nc4ccccc4nc3[nH]2)cc1`, for which the “UV-B (280 320 nm) Max. abs.” value is recorded as 0.8710.

Regarding `CC(=O)c1ccc(-n2c([SiH2]C(C)C)cc3nc4ccccc4nc32)cc1`, the “UV-B (280 320 nm) Max. abs.” value was found to be 0.4246.

Staying with this data set, now noted: 1 mg of substance per 100 ml of solvent, wavelength of UV-A maximum.
Turning to `c1ccc2nc3[nH]cnc3nc2c1`, the “UV-A (400 320 nm) λ[nm]” value is listed as 328.0 nm.

With `Cc1nc2nc3ccccc3nc2[nH]1`, the “UV-A (400 320 nm) λ[nm]” value came to 327.5 nm.

As to `FC(F)(F)c1nc2nc3ccccc3nc2[nH]1`, the “UV-A (400 320 nm) λ[nm]” value was determined as 327.5 nm.

`CC(C)(C)c1nc2nc3ccccc3nc2[nH]1`: the “UV-A (400 320 nm) λ[nm]” value is recorded as 330.0 nm.

Take `FC(F)(F)c1cc(-c2nc3nc4ccccc4nc3[nH]2)cc(C(F)(F)F)c1`: the “UV-A (400 320 nm) λ[nm]” value stood at 358.0 nm.

As for `CC(=O)c1ccc(-n2c(-c3ccccc3)cc3nc4ccccc4nc32)cc1`, the “UV-A (400 320 nm) λ[nm]” value was found to be 359.0 nm.

Take `c1ccc(-c2cc3nc4ccccc4nc3[nH]2)cc1`: the “UV-A (400 320 nm) λ[nm]” value was found to be 367.0 nm.

`c1ccc2nc3[nH]ccc3nc2c1`: the “UV-A (400 320 nm) λ[nm]” value worked out at 338.0 nm.

In the case of `CC(=O)c1ccc(-n2c([SiH2]C(C)C)cc3nc4ccccc4nc32)cc1`, the “UV-A (400 320 nm) λ[nm]” value is on record as 403.0 nm.

Turning to `O=C(O)c1ccc(-n2c(-c3ccccc3)cc3nc4ccccc4nc32)cc1`, the “UV-A (400 320 nm) λ[nm]” value was 358.0 nm.

The same data set, now with this note: 1 mg of substance per 100 ml of solvent, wavelength of UV-B maximum.
Consider `c1ccc(-c2cc3nc4ccccc4nc3[nH]2)cc1`, for which the “UV-B (280 320 nm) λ[nm]” value is on record as 268.0 nm.

Turning to `CC(=O)c1ccc(-n2c([SiH2]C(C)C)cc3nc4ccccc4nc32)cc1`, the “UV-B (280 320 nm) λ[nm]” value is on record as 318.0 nm.
